Experimental data: ChEMBL document CHEMBL1131216, “Anhydrolide macrolides. 2. Synthesis and antibacterial activity of 2,3-anhydro-6-O-methyl 11,12-carbazate erythromycin A analogues” (1998)
Converted amounts (≈) assume the structure as drawn.

Key:
Assay type in all cases: functional
Haemophilus influenzae = assay: In vitro antibacterial activity of DILL strain of Gram negative bacteria Haemophilus influenzae
Streptococcus pneumoniae [1] = assay: In vitro antibacterial activity of 5649 strain of Gram positive bacteria Streptococcus pneumoniae
Streptococcus pneumoniae [2] = assay: In vitro antibacterial activity of 5979 strain of Gram positive bacteria Streptococcus pneumoniae
Streptococcus pneumoniae [3] = assay: In vitro antibacterial activity of ATCC 6303 strain of Gram positive bacteria Streptococcus pneumoniae
Streptococcus pyogenes [4] = assay: In vitro antibacterial activity of 930 strain of Gram positive bacteria Streptococcus pyogenes
Streptococcus pyogenes [5] = assay: In vitro antibacterial activity of EES61 strain of Gram positive bacteria Streptococcus pyogenes
Streptococcus pyogenes [6] = assay: In vitro antibacterial activity of PIU2584 strain of Gram positive bacteria Streptococcus pyogenes
Staphylococcus aureus [7] = assay: In vitro antibacterial activity of A-5278 strain of Gram positive bacteria Staphylococcus aureus
Staphylococcus aureus [8] = assay: In vitro antibacterial activity of 6538P strain of Gram positive bacteria Staphylococcus aureus
Staphylococcus aureus [9] = assay: In vitro antibacterial activity of A5177 strain of Gram positive bacteria Staphylococcus aureus

MIC (Haemophilus influenzae) [µg/mL] | MIC (Streptococcus pneumoniae [1]) [µg/mL] | MIC (Streptococcus pneumoniae [2]) [µg/mL] | MIC (Streptococcus pneumoniae [3]) [µg/mL] | MIC (Streptococcus pyogenes [4]) [µg/mL] | MIC (Streptococcus pyogenes [5]) [µg/mL] | MIC (Streptococcus pyogenes [6]) [µg/mL] | MIC (Staphylococcus aureus [7]) [µg/mL] | MIC (Staphylococcus aureus [8]) [µg/mL] | MIC (Staphylococcus aureus [9]) [µg/mL] | Compound
8 (≈ 10.7 µM) | 0.5 (≈ 0.668 µM) | 64 (≈ 85.6 µM) | 0.03 (≈ 0.0401 µM) | 64 (≈ 85.6 µM) | 0.03 (≈ 0.0401 µM) | 1 (≈ 1.34 µM) | > 100 | 0.39 (≈ 0.521 µM) |  | CC[C@H]1OC(=O)/C(C)=C/[C@H](C)[C@@H](O[C@@H]2O[C@H](C)C[C@H](N(C)C)[C@H]2O)[C@@](C)(OC)C[C@@H](C)C(=O)[C@H](C)[C@H]2N(NCc3ccc(SC)cc3)C(=O)O[C@]12C
> 64 | 2 (≈ 2.48 µM) | 16 (≈ 19.8 µM) | 0.25 (≈ 0.309 µM) | 8 (≈ 9.9 µM) | 0.25 (≈ 0.309 µM) | 2 (≈ 2.48 µM) | 25 (≈ 30.9 µM) | 1.56 (≈ 1.93 µM) | 1.56 (≈ 1.93 µM) | CC[C@H]1OC(=O)/C(C)=C/[C@H](C)[C@@H](O[C@@H]2O[C@H](C)C[C@H](N(C)C)[C@H]2O)[C@@](C)(OC)C[C@@H](C)C(=O)[C@H](C)[C@H]2N(NCCc3ccc(Oc4ccccc4)cc3)C(=O)O[C@]12C
> 128 | 8 (≈ 11 µM) | 16 (≈ 21.9 µM) | 2 (≈ 2.74 µM) | 8 (≈ 11 µM) | 2 (≈ 2.74 µM) | 8 (≈ 11 µM) | 25 (≈ 34.2 µM) | 12.5 (≈ 17.1 µM) |  | CC[C@H]1OC(=O)/C(C)=C/[C@H](C)[C@@H](O[C@@H]2O[C@H](C)C[C@H](N(C)C)[C@H]2O)[C@@](C)(OC)C[C@@H](C)C(=O)[C@@H](C)[C@H]2N(NCCCc3ccccc3)C(=O)O[C@]12C
2 (≈ 2.56 µM) | 1 (≈ 1.28 µM) | > 64 | 0.004 (≈ 0.00512 µM) | > 64 | 0.004 (≈ 0.00512 µM) | 0.5 (≈ 0.64 µM) | > 100 | 0.2 (≈ 0.256 µM) | 0.1 (≈ 0.128 µM) | CC[C@H]1OC(=O)/C(C)=C/[C@H](C)[C@@H](O[C@@H]2O[C@H](C)C[C@H](N(C)C)[C@H]2O)[C@@](C)(OC)C[C@@H](C)C(=O)[C@H](C)[C@H]2N(NCCCc3ccnc4ccccc34)C(=O)O[C@]12C
16 (≈ 21.5 µM) | 1 (≈ 1.34 µM) | > 128 | 0.125 (≈ 0.168 µM) | 128 (≈ 172 µM) | 0.125 (≈ 0.168 µM) | 1 (≈ 1.34 µM) | > 100 | 0.2 (≈ 0.268 µM) | 0.2 (≈ 0.268 µM) | CC[C@H]1OC(=O)/C(C)=C/[C@H](C)[C@@H](O[C@@H]2O[C@H](C)C[C@H](N(C)C)[C@H]2O)[C@@](C)(OC)C[C@@H](C)C(=O)[C@H](C)[C@H]2N(NCc3ccc(N(C)C)cc3)C(=O)O[C@]12C
16 (≈ 21.5 µM) |  | > 128 | 0.03 (≈ 0.0403 µM) | 128 (≈ 172 µM) | 0.06 (≈ 0.0805 µM) | 1 (≈ 1.34 µM) | > 100 | 0.39 (≈ 0.524 µM) | 0.39 (≈ 0.524 µM) | CC[C@H]1OC(=O)/C(C)=C/[C@H](C)[C@@H](O[C@@H]2O[C@H](C)C[C@H](N(C)C)[C@H]2O)[C@@](C)(OC)C[C@@H](C)C(=O)[C@H](C)[C@H]2N(NCCCc3ccccc3N)C(=O)O[C@]12C
4 (≈ 5.24 µM) | 0.25 (≈ 0.328 µM) | > 128 | 0.03 (≈ 0.0393 µM) | > 128 | 0.015 (≈ 0.0197 µM) | 0.25 (≈ 0.328 µM) | > 100 | 0.1 (≈ 0.131 µM) |  | CC[C@H]1OC(=O)/C(C)=C/[C@H](C)[C@@H](O[C@@H]2O[C@H](C)C[C@H](N(C)C)[C@H]2O)[C@@](C)(OC)C[C@@H](C)C(=O)[C@H](C)[C@H]2N(NCc3cc([N+](=O)[O-])ccc3O)C(=O)O[C@]12C
8 (≈ 11.4 µM) | 1 (≈ 1.42 µM) | > 64 | 0.06 (≈ 0.0854 µM) | > 64 | 0.03 (≈ 0.0427 µM) | 1 (≈ 1.42 µM) | > 100 | 0.39 (≈ 0.555 µM) | 0.39 (≈ 0.555 µM) | CC[C@H]1OC(=O)/C(C)=C/[C@H](C)[C@@H](O[C@@H]2O[C@H](C)C[C@H](N(C)C)[C@H]2O)[C@@](C)(OC)C[C@@H](C)C(=O)[C@H](C)[C@H]2N(NCc3cccnc3)C(=O)O[C@]12C
8 (≈ 11.4 µM) | 1 (≈ 1.42 µM) | > 64 | 0.06 (≈ 0.0855 µM) | > 64 | 0.03 (≈ 0.0427 µM) | 1 (≈ 1.42 µM) | > 100 | 0.39 (≈ 0.556 µM) | 0.2 (≈ 0.285 µM) | CC[C@H]1OC(=O)/C(C)=C/[C@H](C)[C@@H](O[C@@H]2O[C@H](C)C[C@H](N(C)C)[C@H]2O)[C@@](C)(OC)C[C@@H](C)C(=O)[C@H](C)[C@H]2N(NCc3ccccc3)C(=O)O[C@]12C
8 (≈ 11.4 µM) | 1 (≈ 1.42 µM) | > 128 | 0.06 (≈ 0.0854 µM) | > 128 | 0.06 (≈ 0.0854 µM) | 1 (≈ 1.42 µM) | > 100 | 0.39 (≈ 0.555 µM) | 0.39 (≈ 0.555 µM) | CC[C@H]1OC(=O)/C(C)=C/[C@H](C)[C@@H](O[C@@H]2O[C@H](C)C[C@H](N(C)C)[C@H]2O)[C@@](C)(OC)C[C@@H](C)C(=O)[C@H](C)[C@H]2N(NCc3ccccn3)C(=O)O[C@]12C
16 (≈ 21.4 µM) | 1 (≈ 1.34 µM) | 64 (≈ 85.6 µM) | 0.06 (≈ 0.0802 µM) | 64 (≈ 85.6 µM) | 0.03 (≈ 0.0401 µM) | 1 (≈ 1.34 µM) | 50 (≈ 66.8 µM) | 0.39 (≈ 0.521 µM) | 0.2 (≈ 0.267 µM) | CC[C@H]1OC(=O)/C(C)=C/[C@H](C)[C@@H](O[C@@H]2O[C@H](C)C[C@H](N(C)C)[C@H]2O)[C@@](C)(OC)C[C@@H](C)C(=O)[C@H](C)[C@H]2N(NCCCc3ccc(F)cc3)C(=O)O[C@]12C
4 (≈ 5.37 µM) | 1 (≈ 1.34 µM) | > 128 | 0.03 (≈ 0.0403 µM) | > 128 | 0.03 (≈ 0.0403 µM) | 1 (≈ 1.34 µM) | > 100 | 0.39 (≈ 0.524 µM) |  | CC[C@H]1OC(=O)/C(C)=C/[C@H](C)[C@@H](O[C@@H]2O[C@H](C)C[C@H](N(C)C)[C@H]2O)[C@@](C)(OC)C[C@@H](C)C(=O)[C@H](C)[C@H]2N(NCCCc3ccc(N)cc3)C(=O)O[C@]12C
4 (≈ 5.57 µM) | 1 (≈ 1.39 µM) | > 128 | 0.03 (≈ 0.0418 µM) | > 128 | 0.03 (≈ 0.0418 µM) | 0.5 (≈ 0.696 µM) | > 100 | 0.2 (≈ 0.279 µM) | 0.1 (≈ 0.139 µM) | CC[C@H]1OC(=O)/C(C)=C/[C@H](C)[C@@H](O[C@@H]2O[C@H](C)C[C@H](N(C)C)[C@H]2O)[C@@](C)(OC)C[C@@H](C)C(=O)[C@H](C)[C@H]2N(NCc3cccc(O)c3)C(=O)O[C@]12C
4 (≈ 5.37 µM) |  | > 128 | 0.03 (≈ 0.0403 µM) | > 128 | 0.03 (≈ 0.0403 µM) | 1 (≈ 1.34 µM) | > 100 | 0.2 (≈ 0.268 µM) | 0.2 (≈ 0.268 µM) | CC[C@H]1OC(=O)/C(C)=C/[C@H](C)[C@@H](O[C@@H]2O[C@H](C)C[C@H](N(C)C)[C@H]2O)[C@@](C)(OC)C[C@@H](C)C(=O)[C@H](C)[C@H]2N(NCCCc3cccc(N)c3)C(=O)O[C@]12C
8 (≈ 10.3 µM) | 1 (≈ 1.29 µM) | 128 (≈ 165 µM) | 0.03 (≈ 0.0387 µM) | 64 (≈ 82.6 µM) | 0.03 (≈ 0.0387 µM) | 0.5 (≈ 0.645 µM) | > 100 | 0.1 (≈ 0.129 µM) | 0.01 (≈ 0.0129 µM) | CC[C@H]1OC(=O)/C(C)=C/[C@H](C)[C@@H](O[C@@H]2O[C@H](C)C[C@H](N(C)C)[C@H]2O)[C@@](C)(OC)C[C@@H](C)C(=O)[C@H](C)[C@H]2N(NCCCc3ccccc3[N+](=O)[O-])C(=O)O[C@]12C
> 64 | 64 (≈ 89.6 µM) | 64 (≈ 89.6 µM) | 16 (≈ 22.4 µM) | 64 (≈ 89.6 µM) | 16 (≈ 22.4 µM) | 64 (≈ 89.6 µM) | 100 (≈ 140 µM) | 100 (≈ 140 µM) | 50 (≈ 70 µM) | CC[C@H]1OC(=O)/C(C)=C/[C@H](C)[C@@H](O[C@@H]2O[C@H](C)C[C@H](N(C)C)[C@H]2O)[C@@](C)(OC)C[C@@H](C)[C@H]2[C@H](C)[C@H]3N(C(=O)O[C@]13C)N2CCCc1ccccc1
4 (≈ 5.36 µM) | 1 (≈ 1.34 µM) | > 64 | 0.004 (≈ 0.00536 µM) | > 64 | 0.004 (≈ 0.00536 µM) | 0.25 (≈ 0.335 µM) | > 100 | 0.2 (≈ 0.268 µM) | 0.1 (≈ 0.134 µM) | CC[C@H]1OC(=O)/C(C)=C/[C@H](C)[C@@H](O[C@@H]2O[C@H](C)C[C@H](N(C)C)[C@H]2O)[C@@](C)(OC)C[C@@H](C)C(=O)[C@H](C)[C@H]2N(NCCCc3ccc(O)cc3)C(=O)O[C@]12C
8 (≈ 10.1 µM) | 0.5 (≈ 0.628 µM) | > 128 | 0.03 (≈ 0.0377 µM) | 128 (≈ 161 µM) | 0.03 (≈ 0.0377 µM) | 1 (≈ 1.26 µM) | > 100 | 0.2 (≈ 0.251 µM) |  | CC[C@H]1OC(=O)/C(C)=C/[C@H](C)[C@@H](O[C@@H]2O[C@H](C)C[C@H](N(C)C)[C@H]2O)[C@@](C)(OC)C[C@@H](C)C(=O)[C@H](C)[C@H]2N(NCCCn3cnc(-c4ccccc4)c3)C(=O)O[C@]12C
8 (≈ 10.4 µM) | 0.25 (≈ 0.326 µM) | 32 (≈ 41.7 µM) | 0.03 (≈ 0.0391 µM) | 32 (≈ 41.7 µM) | 0.06 (≈ 0.0781 µM) | 0.5 (≈ 0.651 µM) | 100 (≈ 130 µM) | 0.2 (≈ 0.26 µM) |  | CC[C@H]1OC(=O)/C(C)=C/[C@H](C)[C@@H](O[C@@H]2O[C@H](C)C[C@H](N(C)C)[C@H]2O)[C@@](C)(OC)C[C@@H](C)C(=O)[C@H](C)[C@H]2N(NCc3c(O)ccc4ccccc34)C(=O)O[C@]12C
> 64 | 4 (≈ 5.49 µM) | 16 (≈ 22 µM) | 1 (≈ 1.37 µM) | 16 (≈ 22 µM) | 4 (≈ 5.49 µM) | 8 (≈ 11 µM) | 50 (≈ 68.7 µM) | 12.5 (≈ 17.2 µM) | 6.2 (≈ 8.52 µM) | CC[C@H]1OC(=O)/C(C)=C/[C@H](C)[C@@H](O[C@@H]2O[C@H](C)C[C@H](N(C)C)[C@H]2O)[C@@](C)(OC)C[C@@H](C)C(=O)[C@@H](C)[C@H]2N(NC/C=C/c3ccccc3)C(=O)O[C@]12C
16 (≈ 21.7 µM) | 1 (≈ 1.36 µM) | 32 (≈ 43.5 µM) | 0.06 (≈ 0.0815 µM) | 32 (≈ 43.5 µM) | 0.03 (≈ 0.0407 µM) | 1 (≈ 1.36 µM) | 100 (≈ 136 µM) | 0.2 (≈ 0.272 µM) | 0.2 (≈ 0.272 µM) | CC[C@H]1OC(=O)/C(C)=C/[C@H](C)[C@@H](O[C@@H]2O[C@H](C)C[C@H](N(C)C)[C@H]2O)[C@@](C)(OC)C[C@@H](C)C(=O)[C@H](C)[C@H]2N(NCc3ccc(Cl)cc3)C(=O)O[C@]12C
